These results are taken from patent US8202969B2, “Platelet derived growth factor receptor alpha (PDGFRA) polypeptides comprising activating mutation(s)” (Oregon Health & Science University, priority 2002, dated 2012).

Counter-ions that a name gives are not always drawn.

The test system of one experiment is CHO cells. Put plainly: Tyrosine phosphorylation of wild-type and mutant PDGFRA transiently expressed in CHO cells (immunoblot). The format is cell-based, Chinese hamster. As to conditions: for change of tyrosine phosphorylation by ligand stimulation: CHO cells, 100 ng/ml recombinant human PDGF-AA for 10 minutes; for baseline tyrosine phosphorylation: transient expression in CHO cells, serum starved overnight, vehicle. The method, then: FIG. 8: DGFRA mutations in GISTs result in constitutive activation of PDGFRA kinase. […] CHO cells were transiently transfected with expression vectors encoding cDNAs for wild-type or mutant PDGFRA. Transfected cells were serum starved overnight and treated with vehicle or ligand (recombinant human PDGF-AA) for 10 minutes. Whole cell lysates were immunostained sequentially for phospho-tyrosine and PDGFRA. […] In contrast, the mutant PDGFRA proteins display ligand-independent phosphorylation.
PDGFRA mutations were cloned by site-directed mutagenesis of the wild type PDGFRA cDNA. CHO cells were transiently transfected with expression vectors encoding for mutant or wild-type PDGFRA cDNA. Transfected cells were serum starved overnight and stimulated with vehicle or 100 ng/ml recombinant human PDGF-AA for 10 minutes before harvesting cells and preparing whole cell lysates for immunoblotting. The membranes were sequentially immunoblotted with antiserum against phosphorylated tyrosines (PY20 Transduction Laboratories) or total PDGFRA (Santa Cruz sc-338).

The target in the next experiment is wild-type KIT (Homo sapiens, UniProt P10721). As to conditions: cited from earlier work.
In experiment [1] the test system is KIT activation loop mutations that involve residues other than aspartic acid 816. Particulars: cited from earlier work.
In experiment [2] the test system is KIT activating mutations involving the extracellular, juxtamembrane and TK1 domain. Particulars: cited from earlier work.
Experiment [3] concerns KIT D816 mutations (D816V, D816Y, D816F, D816H). As to conditions: or equivalent D814 residue in murine KIT; cited from earlier work.

wild-type KIT, sequence (P10721 26-976): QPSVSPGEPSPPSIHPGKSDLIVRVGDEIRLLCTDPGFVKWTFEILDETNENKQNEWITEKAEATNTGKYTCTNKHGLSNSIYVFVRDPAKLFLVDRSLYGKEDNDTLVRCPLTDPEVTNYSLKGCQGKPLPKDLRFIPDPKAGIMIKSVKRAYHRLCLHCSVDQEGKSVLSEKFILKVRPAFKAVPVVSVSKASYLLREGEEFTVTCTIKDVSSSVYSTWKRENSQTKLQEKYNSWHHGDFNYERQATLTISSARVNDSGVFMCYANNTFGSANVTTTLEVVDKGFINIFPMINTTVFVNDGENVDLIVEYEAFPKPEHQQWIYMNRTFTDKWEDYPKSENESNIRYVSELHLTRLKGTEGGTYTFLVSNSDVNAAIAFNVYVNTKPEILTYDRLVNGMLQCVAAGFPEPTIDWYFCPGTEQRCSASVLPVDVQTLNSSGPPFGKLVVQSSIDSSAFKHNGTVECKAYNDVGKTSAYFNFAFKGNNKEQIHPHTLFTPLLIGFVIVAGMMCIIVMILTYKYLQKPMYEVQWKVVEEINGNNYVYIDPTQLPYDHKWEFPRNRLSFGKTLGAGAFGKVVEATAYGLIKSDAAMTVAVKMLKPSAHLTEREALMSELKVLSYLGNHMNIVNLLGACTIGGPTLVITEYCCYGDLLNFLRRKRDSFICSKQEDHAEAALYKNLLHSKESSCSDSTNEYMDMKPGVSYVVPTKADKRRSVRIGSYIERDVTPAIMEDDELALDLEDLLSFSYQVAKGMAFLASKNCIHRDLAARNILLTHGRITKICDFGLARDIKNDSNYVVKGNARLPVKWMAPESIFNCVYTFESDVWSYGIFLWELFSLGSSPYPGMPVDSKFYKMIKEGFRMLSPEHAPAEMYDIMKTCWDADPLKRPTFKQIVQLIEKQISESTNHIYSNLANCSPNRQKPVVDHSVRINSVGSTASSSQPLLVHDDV

Take “non-mutant PDGFRA: human PDGFRA protein, SEQ ID NO: 2”: in the experiment with CHO cells, the “change of tyrosine phosphorylation by ligand stimulation” value is listed as “substantially increased” and the baseline tyrosine phosphorylation entry is reported as “weak”. In addition, in the experiment on CHO cells (listed as Wild type PDGFRA), the “change of tyrosine phosphorylation by ligand stimulation” value was “upregulated” and the baseline tyrosine phosphorylation result is “low-level phosphorylation”.

For `Cc1ccc(NC(=O)c2ccc(CN3CCN(C)CC3)cc2)cc1Nc1nccc(-c2cccnc2)n1` [imatinib mesylate], the “activity against the kinase activity of wild-type KIT” value on wild-type KIT is given as “highly active”. Moreover, in experiment [1], the “activity against other KIT activation loop mutations” value is listed as “some activity”. Moreover, in experiment [2], the “activity against KIT activating mutations involving the extracellular, juxtamembrane and TK1 domain” value is on record as “highly active”. For the same compound, the “activity against KIT D816 mutations” value in experiment [3] was “no clinically useful activity”.
